In ChEMBL document CHEMBL6120970, “Discovery and Functional Characterization of a Potent, Selective, and Metabolically Stable PROTAC of the Protein Kinases DYRK1A and DYRK1B” (J Med Chem, 2024):
Activity calls are given as the source filed them. The rule behind the calls is not given here.

Legend:
[1] = biological target: T1, Protein cereblon/Dual specificity tyrosine-phosphorylation-regulated kinase 1A (Homo sapiens, UniProt Q13627+Q96SW2); assay: PROTAC activity at CRBN/DYRK1A in human SH-SY5Y cells assessed as induction of degradation of DYRK1A at 100 nM incubated for 24 hrs; format: cell-based
[2] = biological target: T1, Protein cereblon/Dual specificity tyrosine-phosphorylation-regulated kinase 1A; assay: PROTAC activity at CRBN/DYRK1A in HEK293 cells assessed as induction of degradation of DYRK1A at 100 nM pretreated with lenalidomide followed by compound addition and incubated for 8 hrs; format: cell-based
[3] = biological target: T1, Protein cereblon/Dual specificity tyrosine-phosphorylation-regulated kinase 1A; assay: PROTAC activity at CRBN/DYRK1A in human PANC-1 cells assessed as induction of degradation of DYRK1A at 100 nM incubated for 8 hrs; format: cell-based
[4] = biological target: T1, Protein cereblon/Dual specificity tyrosine-phosphorylation-regulated kinase 1A; assay: PROTAC activity at CRBN/DYRK1A in HEK293 cells assessed as induction of degradation of DYRK1A at 100 nM pretreated with leucettine-41 followed by compound addition and incubated for 8 hrs; format: cell-based
[5] = biological target: T1, Protein cereblon/Dual specificity tyrosine-phosphorylation-regulated kinase 1A; assay: Competitive binding affinity to CRBN/DYRK1A (unknown origin) assessed as association rate constant Kon; format: protein assay
[6] = biological target: T1, Protein cereblon/Dual specificity tyrosine-phosphorylation-regulated kinase 1A; assay: Competitive binding affinity to CRBN/DYRK1A (unknown origin) assessed as dissociation constant; format: protein assay
[7] = biological target: Protein cereblon/Dual specificity tyrosine-phosphorylation-regulated kinase 1B (Homo sapiens) (UniProt Q9Y463+Q96SW2); assay: PROTAC activity at CRBN/DYRK1B in Flp-In-T-REx-293 cells overexpressing GFP-DYRK1B assessed as half life at 1 uM measured upto 6 hrs by fluorescence based phase contrast microscopy analysis; format: cell-based
[8] = biological target: T1, Protein cereblon/Dual specificity tyrosine-phosphorylation-regulated kinase 1A; assay: PROTAC activity at CRBN/DYRK1A in HEK293 cells assessed as induction of degradation of DYRK1A at 100 nM preincubated for 24 to 72 hrs followed by washout and subsequent addition of medium containing compounds measured for 48 hrs; format: cell-based; conditions: time 72-120 hrs
[9] = Metabolic stability in mouse liver microsomes assessed as half life; format: ADME, Microsome

## Cc1nc2ccc(-c3ccnc(N)c3)nc2n1-c1ccc(N2CCN(CC#Cc3ccc(N4CCC(C(=O)N5CCC(n6cc(CNc7cccc8c7C(=O)N(C7CCC(=O)NC7=O)C8=O)cn6)CC5)CC4)nc3)CC2)c(F)c1 (centres undefined)
[1]
  Activity: Active
[2]
  Activity: inactive
[3]
  Activity: Active; Compound Showed Partial Degradation
[4]
  Activity: inactive
[5]
  K: 1.83 10^5/M/s
[6]
  Kd: 6.3 nM
[7]
  T1/2: 0.6 h
[8]
  Activity: Active
[9]
  half-life: 7.38 h
